Reference: patent US20080311039A1, “Therapeutic and Prognostic Factor Yy1 in Human Cancer” (The Regents of the University of California, priority 2004, published 2008)
Where a name gives a salt, the structure may show the parent alone.

Tests used:
YY1 [1] = experiment: YY1 expression in PC-3 cells
YY1 [2] = experiment: YY1 activity by luciferase reporter assay in PC-3
DR5 promoter = experiment: DR5 luciferase reporter system (pDR5 wild type) in PC3 cells; assay type: cell-based, human; settings: PC3 transfected with pDR5, drug treatment vs basal
Excerpt: Another reporter gene system of use in the present invention utilized firefly luciferase luminescence as the reporter signal. In this reporter system, a wild-type DR5 promoter is operably linked to a luciferase reporter sequence. The wild-type DR5YY1 responsive site can be used in parallel with a DR5 promoter having a non-functional YY1 responsive site, for example, a 5′-deletion mutant-605 that includes the YY1 binding site (pDR5/-605) (described in Yoshida, et al, (2001) FEBS Letters, 507:381-385), or a DR5 promoter sequence missing the YY1 binding sequence (pDR5-YY1 mutant) (see, Huerta-Yepez, et al., AACR Abstract, 2005).
However, many drug-resistant tumor cells are also resistant to TRAIL and such tumors require sensitization to reverse TRAIL resistance. […] This hypothesis was tested by examining a luciferase reporter system (pDR5 wild type) and plasmids in which the YY1-binding site was either deleted (pDR5/-605) and/or mutated (pDR5-YY1 mutant).

DR5 = DR5 expression in PC-3 cells by flow, RT-PCR and western; assay type: cell-based, human
NF-κB [3] = experiment: NF-κB DNA-binding activity in PC-3 cells; assay type: cell-based, human
PC-3 cells [4] = experiment: Sensitization to TRAIL-induced apoptosis, prostate carcinoma cells; assay type: cell-based, human; settings: 500 μM, 1000 μM, 18 h
Procedure: (§1) Yin-Yang 1 (YY1) is a transcription factor that may activate or repress gene expression. […] In this study, we examined the direct S-nitrosylation of YY1 using the human prostate cancer cell line, PC-3, as model. Culture cells were incubated for 18 h in the presence of various concentrations of the NO donor DETANONOate (500 μM, 1000 μM) that sensitized PC-3 to Fas ligand- and TRAIL-mediated apoptosis. Subsequently, we analyzed for S-nitrosylation of YY1 by various methods. […] Noteworthy, significant constitutive S-nitrosylated proteins were detected. Further, using double immunofluorescence staining microscopy, we co-localized the presence of S-nitrosylated proteins and YY1.

PC-3 cells [5] = experiment: Sensitization to Fas ligand-mediated apoptosis, PC-3; assay type: cell-based, human; settings: 500 μM, 1000 μM, 18 h
Procedure: as §1

Fas = Fas expression in B-NHL cell lines (flow cytometry, RT-PCR, Western); assay type: cell-based
Excerpt: (§2) We have recently reported that treatment of B-Non-Hodgkin's Lymphoma (NHL) cell lines with rituximab (anti-CD20 antibody) sensitizes the tumor cells to both chemotherapy and Fas-induced apoptosis (Jazirehi and Bonavida, 2005, Oncogene, 24:2121-2145). This study investigated the underlying molecular mechanism of rituximab-mediated reversal of resistance. Treatment of B-NHL cell lines inhibited the constitutively activated NF-κB. Cells expressing dominant active IκB or treated with NF-κB specific inhibitors were sensitized to both drugs and FasL agonist mAb (CH-11)-induced apoptosis. Downregulation of Bcl-xL expression via inhibition of NF-κB activity correlated with chemosensitivity. […] The role of Bcl-xL expression in the regulation of Fas resistance was not apparent as Ramos HA-Bcl cells were as sensitive as the wild type cells to CH-11-induced apoptosis. […] These findings show two complementary mechanisms underlying the chemo-sensitization and immuno-sensitization of B NHL cells by rituximab via inhibition of NF-κB. The regulation of chemoresistance by NF-B is mediated via Bcl-xL expression whereas the regulation of Fas resistance by NF-B is mediated via YY1 expression and activity.
(§3) We have reported that rituximab triggers and inhibits anti-apoptotic gene products in NHL B-cell lines resulting in sensitization to drug-induced apoptosis (Alas et al., Clin. Cancer Res. 8:836, 2001; Jazirehi et al., Mol. Cancer. Therapy 2:1183, 2003; Vega et al., Oncogene 23:3530, 2004). This study investigated whether rituximab also modifies intracellular signaling pathways resulting in the sensitization of NHL cells to Fas-induced apoptosis. […] Downregulation of YY1 expression was the result of rituximab-induced inhibition of both the p38MAPK signaling pathway and constitutive NF-κB activity. The dual roles of NF-κB and YY1 in the regulation of Fas expression were corroborated by the use of a dominant-active inhibitor of NF-κB (Ramos IκB-ER mutant) and YY1 siRNA, respectively. […]

B-NHL cell lines [6] = experiment: Sensitization to CH-11 (FasL agonist mAb)-induced apoptosis in B-NHL cell lines; assay type: cell-based
Excerpt: as §2, §3

PC-3 cells [7] = settings: TRAIL-resistant human prostate carcinoma (CaP) cell lines; Huerta-Yepez et al. 2004; cited from earlier work
YY1 [8] = target: T1, YY1 (Homo sapiens, UniProt P25490); experiment: YY1 DNA-binding activity in PC-3 cells; assay type: cell-based; set-up: endogenous in cells; host or cells: PC-3
YY1 [9] = target: T1, YY1; experiment: YY1 activity in B-NHL cell lines; assay type: cell-based; set-up: endogenous in cells; host or cells: 2F7, Ramos, Raji; rituximab-resistant Ramos RR1
Excerpt: as §2, §3

PC-3 cells [10] = experiment: General S-nitrosylation of proteins in PC-3 by immunohistochemistry; assay type: cell-based, human; settings: PC-3, after treatment with NO
Procedure: as §1

YY1 [11] = experiment: YY1 expression in rituximab-resistant Ramos RR1 cells; assay type: cell-based; settings: alone or in combination with NF-κB inhibitors
Procedure: Ramos and Ramos RR1 cells were treated with vincristine, VP-16, CDDP, and ADR, and the NF-κB inhibitors Bortezomib and DHMEQ.

YY1 [12] = experiment: YY1 expression in NHL B-cell lines; assay type: cell-based; settings: NHL B cell lines (Example 9)
Excerpt: (§4) We have reported that rituximab triggers and inhibits anti-apoptotic gene products in NHL B-cell lines resulting in sensitization to drug-induced apoptosis (Alas et al., Clin. Cancer Res. 8:836, 2001; Jazirehi et al., Mol. Cancer. Therapy 2:1183, 2003; Vega et al., Oncogene 23:3530, 2004). This study investigated whether rituximab also modifies intracellular signaling pathways resulting in the sensitization of NHL cells to Fas-induced apoptosis. […] Downregulation of YY1 expression was the result of rituximab-induced inhibition of both the p38MAPK signaling pathway and constitutive NF-κB activity. The dual roles of NF-κB and YY1 in the regulation of Fas expression were corroborated by the use of a dominant-active inhibitor of NF-κB (Ramos IκB-ER mutant) and YY1 siRNA, respectively. The role of rituximab-mediated inhibition of the p38MAPK/NF-κB/YY1 pathways, which result in both Fas upregulation and sensitization to CH11-induced apoptosis, was corroborated by the use of specific chemical inhibitors directed at various targets of these pathways. […] Altogether, these findings provide a novel mechanism of rituximab-mediated signaling by inhibiting the p38MAPK/NF-κB/YY1 pathways and resulting in the sensitization of B NHL to Fas-induced apoptosis. […]

Ramos cells [13] = experiment: Chemosensitization to drug-induced apoptosis in Ramos B-NHL cells and variants; assay type: cell-based
Excerpt: as §2

[14] = system: p38MAPK signaling pathway; experiment: p38MAPK signaling pathway in NHL cell lines; assay type: cell-based; settings: NHL B cell lines
Excerpt: as §4

NF-κB [15] = experiment: Constitutive NF-κB activity in NHL cell lines; assay type: cell-based; settings: NHL B cell lines
Excerpt: as §4

B-NHL cell lines [16] = settings: Jazirehi and Bonavida 2005; cited from earlier work
Ramos cells [17] = settings: B-NHL cell lines; Jazirehi and Bonavida 2005; cited from earlier work

T1 sequence (P25490 whole entry): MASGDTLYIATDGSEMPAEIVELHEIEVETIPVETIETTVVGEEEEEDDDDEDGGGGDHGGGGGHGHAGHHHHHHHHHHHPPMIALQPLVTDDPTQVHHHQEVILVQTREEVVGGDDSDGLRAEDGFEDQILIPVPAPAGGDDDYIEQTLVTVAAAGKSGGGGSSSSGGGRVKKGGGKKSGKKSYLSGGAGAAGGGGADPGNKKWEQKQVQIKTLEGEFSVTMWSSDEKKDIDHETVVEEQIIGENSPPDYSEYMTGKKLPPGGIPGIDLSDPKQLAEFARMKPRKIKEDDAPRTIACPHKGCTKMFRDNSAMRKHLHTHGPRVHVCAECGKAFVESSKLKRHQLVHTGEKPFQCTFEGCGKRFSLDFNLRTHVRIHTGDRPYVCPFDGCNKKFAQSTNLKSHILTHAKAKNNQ

Compound: COc1cc2c(cc1O)CC[C@@H]1[C@@H]2CC[C@]2(C)[C@@H](O)CC[C@@H]12 [2-methoxyestradiol, 2-Methoxyestradiol]
- YY1 expression (YY1 [1]): marked reduction
- YY1 activity (luciferase reporter assay) (YY1 [2]): marked reduction

Compound: COc1cccc2c1C(=O)c1c(O)c3c(c(O)c1C2=O)C[C@@](O)(C(=O)CO)C[C@@H]3O[C@H]1C[C@H](N)[C@H](O)[C@H](C)O1 [ADR, doxorubicin hydrochloride]
- luciferase activity (DR5 promoter): significantly augmented luciferase activity

Compound: [NH2][Pt]([NH2])([Cl])[Cl] [CDDP, cisplatin]
- luciferase activity (DR5 promoter): significantly augmented luciferase activity

Compound: NCCN(CCN)/[N+]([O-])=N/O [DETANONOate, 3,3-bis(aminoethyl)-1-hydroxy-2-oxo-*1-triazene]
- DR5 expression (DR5): significant upregulation of DR5 expression
- NF-κB DNA-binding activity (NF-κB [3]): inhibited
- sensitization to TRAIL-mediated apoptosis (PC-3 cells [4]): sensitized
- sensitization to Fas ligand-mediated apoptosis (PC-3 cells [5]): sensitized
- Fas expression (Fas; B-NHL cell lines (Example 6)): upregulation of Fas expression
- sensitization to CH-11-induced apoptosis (B-NHL cell lines [6]; B-NHL cell lines (Example 6)): sensitization to CH-11-induced apoptosis
- sensitization of TRAIL-resistant CaP cell lines (PC-3 cells [7]): can be sensitized
- YY1 expression (YY1 [1]): inhibited YY1 expression
- YY1 DNA-binding activity (YY1 [8]): inhibited
- YY1 activity (YY1 [9]; B-NHL cell lines (Example 6)): Inhibition of YY1 activity

Compound: [N]=O [NO, nitric oxide]
- general S-nitrosylation of proteins (PC-3 cells [10]): increased

Compound: CC[C@]1(O)C[C@H]2CN(CCc3c([nH]c4ccccc34)[C@@](C(=O)OC)(c3cc4c(cc3OC)N(C=O)[C@H]3[C@@](O)(C(=O)OC)[C@H](OC(C)=O)[C@]5(CC)C=CCN6CC[C@]43[C@@H]65)C2)C1 [vincristine]
- YY1 expression (YY1 [11]): significantly abrogated or diminished YY1 expression

Compound: rituximab: anti-CD20 antibody
- Fas expression (Fas; B-NHL cell lines (Example 6)): upregulation of Fas expression
- Fas expression (Fas; NHL cell lines, as early as 6 h post treatment, flow cytometry, RT-PCR, Western): up-regulated
- sensitization to CH-11-induced apoptosis (B-NHL cell lines [6]; 2F7, Ramos and Raji, 20 μg/ml): sensitized the cells to CH-11 (FasL agonist mAb)-induced apoptosis and synergy was achieved
- sensitization to CH-11-induced apoptosis (B-NHL cell lines [6]; B-NHL cell lines (Example 6)): sensitization to CH-11-induced apoptosis
- YY1 expression (YY1 [12]): inhibited
- sensitization to drug-induced apoptosis (Ramos cells [13]; Bcl-xL overexpressing Ramos HA-BclxL cells): not sensitized
- chemosensitization (Ramos cells [13]; rituximab-resistant Ramos RR1 cells): cannot be chemosensitized
- p38MAPK signaling pathway [14]: inhibition
- constitutive NF-κB activity (NF-κB [15]): inhibition
- sensitization to Fas-induced apoptosis (B-NHL cell lines [16]): sensitizes
- sensitization to chemotherapy (Ramos cells [17]): sensitizes
- YY1 activity (YY1 [9]; B-NHL cell lines (Example 6)): Inhibition of YY1 activity
- YY1 activity (YY1 [9]; NHL B cell lines (Example 9)): inhibited
